Measurements from patent US11801235B2, “Methods and compositions for delivery of biotin to mitochondria” (priority 2020, dated 2023).
Square brackets hold non-standard residues; d marks the D form. Peptide text beside a SMILES is read from it. * marks the point of attachment. Biotin = O=C1N[C@H]2[C@H](CS[C@H]2CCCCC(=O)*)N1

Key:
ARPE-19 cells [1] = assay: In vitro scratch assay (scratch area); type: cell-based, human
Text: (§1) Certain exemplary peptide-conjugated biotin molecules can accelerate wound healing in cell cultures. The in vitro scratch assay is an easy and well-developed method to measure cell proliferation and migration over a “wound area” in vitro. This assay involves creating a “scratch” in a cell monolayer with a pipette tip and then examining the rate at which cells proliferate and migrate to close the scratch.
(§2) The scratch area was examined immediately (day 0) using a Nikon Eclipse Ti2 fluorescence microscope. Six different field were captured for each sample using 4×objective. The scratch area (cell-free zone) was calculated using ImageJ software, an open-source Java image processing program inspired by NIH Image (National Institute of Health). The scratch area was re-examined after 24 hours (day 1), and the area was normalized to the area determined on day 0 for the same sample. All results were calculated as change from no-treatment control and averaged for the six fields.

mouse retina = conditions: 30 mg/kg ip
Experimental: SPN15 (30 mg/kg) was administered ip to a 13-month-old male mouse (C57BL/6J strain). At 2-hours after administration, the mouse was anesthetized with an overdose of ketamine/xylazine, and the eyes enucleated. After the cornea and lens were removed, the eyecup was fixed for 1.25 hours in 4% paraformaldehyde in 0.1M Tris buffer. The eyecup was then rinsed 3 times for 10 minutes each in Tris buffer and then cryoprotected in 10%, 20%, and 30% sucrose before sectioning at 30 um with a Leica 3050 cryostat. Sections were stored at −20° C. until used.
To label biotin on SPN15, sections were incubated with Streptavidin conjugated AlexaFluor 594 (1:500) from Jackson ImmunoResearch, West Grove, PA). ToPro 3 (nuclear stain, 1:1000, Molecular Probes) was used to stain cell nuclei. Mitochondria localization was determined using an antibody to Cox IV (cytochrome c oxidase subunit 4; PA529992, 1:300, Invitrogen) and Mitotracker Red (1:1500 in Tris, Invitrogen). All incubations were carried out in microwave (150W) except for Cox IV and Mitotracker labeling, which was done with primary antibody overnight at 4° C. followed by secondary antibody (AF488 conjugated donkey anti-rabbit, Jackson Immunoresearch). Sections were imaged using the Olympus Fluoview 300 with helium, argon and neon lasers using 40× oil immersion lens at a resolution of 1024×1024.

HK-2 cells = assay: In vitro scratch assay (scratch area); type: cell-based, human; conditions: 10 nM, serum-free, 24 hours
Experimental: as §1
3×10^5 cells were plated per well in 6-well plates in DMEM at 37° C. in a humidified incubator with 5% CO2 for one day prior to the experiment. To mimic the microenvironment of wounds in vitro, serum-free medium was used in the scratch assay. On the day of the scratch assay, the medium was replaced with serum-free DMEM, and a line scraped across the cell monolayer using a p1000 pipette tip. Cells were washed to remove cell debris and replaced with DMEM alone (control), or DMEM containing 10 nM biotin or peptide-conjugated biotin molecules.
as §2

[2] = test system: ARPE-19 human retinal pigment epithelial cells; assay: Biotin uptake by streptavidin-Alexa Fluor 594 fluorescence in ARPE-19 cells; conditions: 1 uM, 1-hour incubation, serum-free
Experimental: Cellular uptake and localization of peptide-conjugated biotin molecules were determined in HK-2 human renal epithelial cells and ARPE-19 human retinal pigment epithelial cells (ATCC, Manassas, VA). HK-2 cells were cultured in Dulbecco's Modified Eagle's Medium (DMEM) containing 1 g/L glucose and 10% fetal bovine serum (FBS), 100 units/ml penicillin and 100 ug/ml streptomycin. ARPE-19 cells were cultured in DMEM/F12 medium containing 1 g/L glucose and 10% fetal bovine serum (FBS), 100 units/ml penicillin and 100 ug/ml streptomycin. Cells were incubated in humidified incubator with 5% CO2 at 37° C. HK-2 cells and ARPE-19 cells were seeded in 35 mm dish at an initial density of 5×10^4 cells. FBS was removed from the culture medium for 3 days to deplete endogenous biotin in the cells. […]
Biotin uptake was determined using Streptavidin binding. […] By using Alexa Fluor 594-conjugated streptavidin, it is possible to visualize biotin uptake using fluorescence microscopy. […] Live cell image buffer was added and Alexa-594 fluorescence (Ex/Em=591/614 nm) and Hoechst fluorescence ([…]) was observed using the Nikon Eclipse Ti2 fluorescence microscope (100×oil objective). Ten random fields from each sample were quantified by NIS-Elements Imaging Software (Nikon) for streptavidin fluorescence and normalized to Hoechst fluorescence to account for number of cells per field.

ARPE-19 cells [3] = assay: Cell number and viability after 30 days of serum deprivation; type: cell-based, human; conditions: 10 nM
Experimental: Cell viability was measured using the Alamar Blue Cell Proliferation Assay (Bio-Rad), according to manufacturer's protocol. Alamar Blue uses resazurin to measure reducing power of living cells. The weakly fluorescent resazurin is reduced to the highly fluorescent resorufin when reduced by cellular metabolism. Briefly, alamar blue reagent (10 ul) was added to the culture medium and incubated for 1 h at 37° C. Fluorescence from resorufin (Ex/Em 530/590 nm) was detected using a microplate reader (SpectraMax iD3, Molecular Devices).
In the second model, ARPE-19 cells were grown in serum-free DMEM in the absence or presence of peptide-conjugated biotin molecules for 30 days. Serum-free media was supplemented with 10 nM of SPN12, SPN15 or SPN16 compounds (all at 10 nM) was replaced every 3 days. Culture medium was replaced every 3 days.

[4] = test system: Human retinal pigment epithelial cells (ARPE-19); assay: Mitochondrial potential (TMRM/MitoView Green) after serum starvation; type: cell-based; conditions: ARPE-19 cells, 3 days of serum starvation, then 1 uM for 2 hours
Experimental: ARPE-19 cells were seeded in 35 mm glass plates at an initial density of 5×10^4 cells. […] Cells were then incubated in serum-free DMEM/F12 alone (control group) or DMEM/F12 containing 1 uM of SPN12 or SPN15 for 2 hours.
To determine mitochondrial potential, live cells were incubated with 5 nM tetramethylrhodamine methyl ester (TMRM, #70017, Biotium, Fremont, CA) in DMEM without phenol red. TMRM is a potential-dependent fluorescent dye (Ex/Em=548/573). TMRM accumulates in negatively charged polarized mitochondria and can be detected as red fluorescence. Total mitochondria were imaged with a mitochondrial potential-independent fluorescent dye (100 nM MitoView Green; Ex/Em=490/523; #70054, Biotium, Fremont CA). Hoechst 33342 (10 ug/ml, Novus Biologicals, Centennial, CO) was added to stain nuclei. Live cells were covered with phosphate buffer and imaged using the Nikon Eclipse Ti fluorescent microscopy using the 60×water objective.

[5] = test system: ARPE-19 human retinal pigment epithelial cells; assay: Mitochondrial localization: co-localization with cytochrome c oxidase subunit 4 (COX4); type: cell-based; conditions: ARPE-19 cells, 1 uM, 2 hours, serum-free DMEM/F12
Experimental: Cells were fixed with 4% PFA at RT for 10 min and then permeabilized with 0.1% Triton X-100 at RT for 10 min. Cells were blocked with 2% BSA (bovine serum albumin) at RT for 30 min, and then incubated with primary antibody for cytochrome c oxidase subunit 4 (COX4), a major protein complex expressed on the inner mitochondrial membrane. The rabbit polyclonal COX4 antibody (Invitrogen PAS-29992, Waltham, MA) was used at 1:500 dilution in 2% BSA at 4° C. overnight.

[6] = mouse, 2 hours after administration

Q: What does the source list for `N=C(N)NCCC[C@@H](N)C(=O)N[C@@H](Cc1ccc(O)cc1)C(=O)N[C@H](CCCNC(=N)N)C(=O)N[C@@H](Cc1ccccc1)C(=O)N[C@@H](CCCCNC(=O)CCCC[C@@H]1SC[C@@H]2NC(=O)N[C@@H]21)C(N)=O` [SPN15, D-Arg-L-Tyr-D-Arg-L-Phe-L-Lys(biotinyl)-NH2] (H-[dR]Y[dR]FK(Biotin)-NH2; N-terminus assumed)?
A: wound healing (scratch closure), FIG. 18 (ARPE-19 cells [1]): accelerated wound healing; absorption after ip administration (mouse retina; living mouse, 2 hours): rapidly absorbed; co-localization of streptavidin staining with COX4 staining in retina, FIG. 26 (mouse retina; [6]): co-localizes with COX4 staining in the RGC, IPL, INL, and the photoreceptor IS; distribution of staining within retinal layers, FIG. 26 (mouse retina; [6]): concentrated in the inner and outer plexiform layers (IPL and OPL); staining in retinal pigment epithelium (RPE) cells, FIG. 27 (mouse retina; [6]): can clearly be seen in the RPE cells; uptake into retina (Streptavidin Alexa Fluor 594 staining), FIG. 26 (mouse retina; [6]): clearly taken up in the different layers of the retina; closure of the scratch area compared to control, FIG. 16 and FIG. 17 (HK-2 cells): significantly accelerated the closure of the scratch area; effectiveness in reducing scratch area compared to free biotin, FIG. 16 and FIG. 17 (HK-2 cells): three times more effective; intracellular streptavidin staining (cellular uptake of biotin), microscopic images FIG. 4 [2]: intense red staining with a perinuclear distribution; cell viability after serum deprivation compared to control, FIG. 9 (ARPE-19 cells [3]; 30 days of serum deprivation): doubled; cell number after prolonged serum deprivation, microscopic images FIG. 8 (ARPE-19 cells [3]; 30 days serum-free): increased cell number; mitochondrial potential (TMRM) and filamentous mitochondrial network, FIG. 14 [4]: restore mitochondrial potential in all cells; co-localization of biotin staining with COX4 staining (inner mitochondrial membrane), FIG. 6 [5]: co-localization
